“And” between values parts separate entries of the source, which are not always exact repeats. Equal values may be shown once. Toxic doses and inconclusive results are not listed. Cut-off read from the data, not from the text of the source: active = T/C of 150% or more; inactive = T/C below 125%.
System: L1210 leukemia ip in BDF1 mice, survival T/C
Assay: NCI In Vivo Anticancer Drug Screen. Data for tumor model L1210 Leukemia (intraperitoneal) in B6D2F1 (BDF1) mice
Settings: endpoint: mean survival time, higher = longer survival
Method in brief: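 Transplantable tumor model; survival measured in treated vs vehicle control mice. Value = treated/control.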

[1] = dose: 100.0 mg/kg/injection, schedule: Q01DX001 (ip), vehicle: saline
[2] = dose: 200.0 mg/kg/injection, schedule: Q01DX001 (ip), vehicle: saline
[3] = dose: 400.0 mg/kg/injection, schedule: Q01DX001 (ip), vehicle: saline
[4] = dose: 100.0 mg/kg/injection, schedule: Q01DX009 (ip), vehicle: saline with Tween-80
[5] = dose: 200.0 mg/kg/injection, schedule: Q01DX009 (ip), vehicle: saline with Tween-80
[6] = dose: 100.0 mg/kg/injection, schedule: Q04DX003 (ip), vehicle: saline with Tween-80
[7] = dose: 200.0 mg/kg/injection, schedule: Q04DX003 (ip), vehicle: saline with Tween-80

Measured: T/C

CC(=O)OC(C)CC1CCCCC12OCCO2 (centres undefined)
inactive: dose: 50.0 mg/kg/injection, schedule: Q01DX001 (ip), vehicle: saline 103 % of control | [1] 108 % of control | [2] 100 % of control | [3] 108 % of control

OCCNC(=S)Nc1cccc(C(F)(F)F)c1
inactive: [4] 100 % of control | dose: 100.0 mg/kg/injection, schedule: Q04DX002 (ip), vehicle: saline with Tween-80 91 % of control | [5] 97 % of control | dose: 200.0 mg/kg/injection, schedule: Q04DX002 (ip), vehicle: saline with Tween-80 98 % of control | dose: 400.0 mg/kg/injection, schedule: Q04DX002 (ip), vehicle: saline with Tween-80 112 % of control

O=C1CCCC1CN1CCOCC1 (centres undefined)
inactive: dose: 100.0 mg/kg/injection, schedule: Q01DX009 (ip), vehicle: saline 92 % of control | dose: 200.0 mg/kg/injection, schedule: Q01DX009 (ip), vehicle: saline 96 % of control | dose: 400.0 mg/kg/injection, schedule: Q01DX009 (ip), vehicle: saline 94 % of control

O=C(Cn1cc[n+](CC(=O)c2ccccc2)c1)c1ccccc1
inactive: dose: 25.0 mg/kg/injection, schedule: Q01DX009 (ip), vehicle: saline with Tween-80 98 % of control | dose: 50.0 mg/kg/injection, schedule: Q01DX009 (ip), vehicle: saline with Tween-80 90 % of control | [4] 102 % of control

NC(=S)NNC(=O)c1ccncc1
inactive: [1] 96 % of control | [2] 96 % of control | [3] 91 % of control

N/C(=N\O)c1ccc(Cl)cc1
inactive: [6] 104 % of control | [7] 98 % of control

O=C(COc1ccc(Cl)c(Cl)c1)NCCc1cc[n+](Cc2ccc(S(=O)(=O)F)cc2)cc1
inactive: [6] 102 % of control | [7] 86 % of control

COc1ccc(/C=C2/c3c(c(-c4ccccc4)c4ccccc4c3-c3ccccc3)S2(=O)=O)cc1
inactive: dose: 50.0 mg/kg/injection, schedule: Q01DX001 (ip), vehicle: carboxymethylcellulose (CMC) 97 % of control | dose: 100.0 mg/kg/injection, schedule: Q01DX001 (ip), vehicle: carboxymethylcellulose (CMC) 95 % of control | dose: 200.0 mg/kg/injection, schedule: Q01DX001 (ip), vehicle: carboxymethylcellulose (CMC) 95 % of control | dose: 400.0 mg/kg/injection, schedule: Q01DX001 (ip), vehicle: carboxymethylcellulose (CMC) 86 % of control

CC(C)(C)C#CC#CC(C)(C)C
inactive: dose: 10.0 mg/kg/injection, schedule: Q04DX003 (ip), vehicle: saline 95 % of control | dose: 20.0 mg/kg/injection, schedule: Q04DX003 (ip), vehicle: saline 100 % of control | dose: 40.0 mg/kg/injection, schedule: Q04DX003 (ip), vehicle: saline 92 % of control

O=P(NC12CC3CC(CC(C3)C1)C2)(N1CC1)N1CC1
active: dose: 9.0 mg/kg/injection, schedule: Q04DX003 (ip), vehicle: Klucel (hydroxypropylcellulose) (HPC) 150 % of control | dose: 13.3 mg/kg/injection, schedule: Q04DX003 (ip), vehicle: Klucel (hydroxypropylcellulose) (HPC) 152 % of control and 182 % of control | dose: 20.0 mg/kg/injection, schedule: Q04DX003 (ip), vehicle: Klucel (hydroxypropylcellulose) (HPC) 155 % of control and 176 % of control and 225 % of control | dose: 27.0 mg/kg/injection, schedule: Q01DX001 (ip), vehicle: Klucel (hydroxypropylcellulose) (HPC) 169 % of control
inactive: dose: 4.0 mg/kg/injection, schedule: Q04DX003 (ip), vehicle: Klucel (hydroxypropylcellulose) (HPC) 107 % of control | dose: 30.0 mg/kg/injection, schedule: Q04DX003 (ip), vehicle: Klucel (hydroxypropylcellulose) (HPC) 92 % of control

O=C(Nc1cccc(Cl)c1)Nc1ccccc1Cl
inactive: [4] 100 % of control | [5] 97 % of control | dose: 400.0 mg/kg/injection, schedule: Q01DX009 (ip), vehicle: saline with Tween-80 96 % of control

Cc1ncc2c(=O)n(-c3ccc(C(=O)O)cc3)[nH]c2n1
inactive: dose: 75.0 mg/kg/injection, schedule: Q04DX003 (ip), vehicle: Klucel (hydroxypropylcellulose) (HPC) 103 % of control | dose: 100.0 mg/kg/injection, schedule: Q01DX001 (ip), vehicle: Klucel (hydroxypropylcellulose) (HPC) 94 % of control | dose: 150.0 mg/kg/injection, schedule: Q04DX003 (ip), vehicle: Klucel (hydroxypropylcellulose) (HPC) 106 % of control | dose: 200.0 mg/kg/injection, schedule: Q01DX001 (ip), vehicle: Klucel (hydroxypropylcellulose) (HPC) 97 % of control | dose: 300.0 mg/kg/injection, schedule: Q04DX003 (ip), vehicle: Klucel (hydroxypropylcellulose) (HPC) 90 % of control | dose: 400.0 mg/kg/injection, schedule: Q01DX001 (ip), vehicle: Klucel (hydroxypropylcellulose) (HPC) 110 % of control

CC1(C)N=C(N)N=C(N)N1c1cccc(S(=O)(=O)F)c1
inactive: dose: 0.8 mg/kg/injection, schedule: Q01DX009 (ip), vehicle: saline 95 % of control | dose: 4.0 mg/kg/injection, schedule: Q01DX009 (ip), vehicle: saline 95 % of control | dose: 20.0 mg/kg/injection, schedule: Q01DX009 (ip), vehicle: saline 100 % of control | [1] 100 % of control | [2] 102 % of control

From PubChem BioAssay AID248 (DTP/NCI, 2004)
